According to US20220087983A1, “ACTIVATING PYRUVATE KINASE R” (FORMA Therapeutics, Inc., priority 2020, published 2022):
Like-named read-outs stand apart in the source and are kept apart here.

Assays:
[1] = Phase 1 SAD/MAD/food effect: plasma pharmacokinetics in healthy volunteers; format: in vivo, human
Excerpt: This is a first-in-human (FIH), Phase 1 study of Compound 1 that will characterize the safety, PK, and PD of Compound 1 after a single dose and after repeated dosing first in healthy adult volunteers and then in adolescents or adults with sickle cell disease. Initially, a dose range of Compound 1 in single ascending dose (SAD) escalation cohorts will be explored in healthy subjects. Enrollment of healthy subjects into 2-week multiple ascending dose (MAD) escalation cohorts will be initiated once the safety and PK from at least two SAD cohorts is available to inform the doses for the 2-week MAD portion of the study. The MAD cohorts will then run in parallel to the single dose cohorts. A single dose cohort is planned to understand food effects (FE) on the PK of Compound 1. […] Multiple dose studies in SCD subjects will then be initiated upon completion of MAD studies in healthy volunteers. Compound 1 will be administered in 25 mg and 100 mg tablets delivered orally, prepared as described in Example 1, Step 7.
In this study, SAD/MAD cohorts are randomized (3 to 1) to receive Compound 1 or placebo (P). Compound 1 was evaluated first in 4 healthy SAD cohorts and 4 healthy MAD (14-day dosing period) cohorts. Based on the safety, and PK/PD profile from HS, Compound 1 is then evaluated in 1 SCD SAD cohort and 2 SCD MAD cohorts. Specifically, based on the safety and pharmacokinetic/pharmacodynamics (PK/PD) profile in healthy volunteer studies, Compound 1 is evaluated in patients (pts) with SCD, first in a single dose (SD or SAD) cohort and then in multiple-dose (MD or MAD) cohorts (14-day and 12-week). Safety assessments include AEs, vital signs, ECGs and laboratory parameters. PK/PD blood sampling was performed on Day 1 (SAD/MAD) and Day 14 (MAD) and up to 72 h after the last dose and at the end-of-study visit. PD parameters included 2,3-DPG, ATP, and p50 in all cohorts with additional PD studies (including oxygen scan) performed only in the SCD cohorts. PD parameters included 2,3-DPG, ATP, p50, RBC deformability with controlled deoxygenation and reoxygenation (Lorrca® oxygen scan) and varying osmolality (Lorrca® osmoscan)). To maintain study blind, pt identifiers were removed when needed.
Primary Outcome Measures: • 1. Incidence, frequency, and severity of adverse events (AEs) per CTCAE v5.0 of a single ascending dose and multiple ascending doses of Compound 1 in adult healthy volunteers and SCD patients. Incidence of abnormal laboratory test results (clinical chemistry, endocrine hematology, urinalysis). Change from baseline in vital signs (blood pressure, respiratory rate, heart rate, and oral temperature). Incidence of treatment-emergent clinically significant abnormal findings in ECGs. • [Time Frame: Up to 3 weeks of monitoring] • 2. […] Area under the plasma concentration-time curve from time zero until the 24-hour time point (AUC0-24) • [Time Frame: Up to 3 weeks of testing] • 5. Area under the plasma concentration-time curve from time zero until last quantifiable time point (AUC0-last) • [Time Frame: Up to 3 weeks of testing] • 6. Area under the plasma concentration-time curve from time zero to infinity (AUC0-inf) • [Time Frame: Up to 3 weeks of testing] • 7. […] Apparent volume of distribution (Vd/F) • [Time Frame: Up to 3 weeks of testing] • 10. Terminal disposition rate constant (Lz) • [Time Frame: Up to 3 weeks of testing] • 11.
Four healthy SAD cohorts were evaluated at doses of 200, 400, 700, and 1000 mg, and four healthy MAD cohorts received 200 to 600 mg total daily doses for 14 days at QD or BID dosing (100 mg BID, 200 mg BID, 300 mg BID, and 400 mg QD). In the food effect (FE) cohort, 10 healthy subjects received 400 mg of Compound 1 QD with and without food.

Permeability Papp (A-B) = format: in vitro ADME; settings: not told
PKR(G332S) = PKR(G332S) (Homo sapiens, UniProt P30613, G332S); assay: Luminescence Assay (Kinase Glo Plus) of PKR activation; format: biochemical; settings: G332S variant; Luminescence Assay of Example 2
Experimental: (§1) PKR Activating Compounds can be identified with the biochemical Luminescence Assay of Example 2. The PKR activating activity of a series of chemical compounds was evaluated using the Luminescence Assay below, including compounds designated Compound 1, and Compound 2, or mixtures thereof.
(§2) For each tested compound, the ability to activate PKR was determined using the following Luminescence Assay. The effect of phosphorylation of adenosine-5′-diphosphate (ADP) by PKR is determined by the Kinase Glo Plus Assay (Promega) in the presence or absence of FBP (D-fructose-1,6-diphosphate; BOC Sciences, CAS: 81028-91-3) as follows. Unless otherwise indicated, all reagents are purchased from Sigma-Aldrich. All reagents are prepared in buffer containing 50 mM Tris-HCl, 100 mM KCl, 5 mM MgCl2, and 0.01% Triton X100, 0.03% BSA, and 1 mM DTT. Enzyme and PEP (phosphoenolpyruvate) are added at 2× to all wells of an assay-ready plate containing serial dilutions of test compounds or DMSO vehicle. Final enzyme concentrations for PKR(wt), PKR(R510Q), and PKR(G332S) are 0.8 nM, 0.8 nM, and 10 nM respectively. Final PEP concentration is 100 μM. The Enzyme/PEP mixture is incubated with compounds for 30 minutes at RT before the assay is initiated with the addition of 2×ADP and KinaseGloPlus. Final concentration of ADP is 100 μM. […] For assays containing FBP, that reagent is added at 30 μM upon reaction initiation. Reactions are allowed to progress for 45 minutes at RT until luminescence is recorded by the BMG PHERAstar FS Multilabel Reader. The compound is tested in triplicate at concentrations ranging from 42.5 μM to 2.2 nM in 0.83% DMSO. AC50 measurements were obtained by the standard four parameter fit algorithm of ActivityBase XE Runner (max, min, slope and AC50). The AC50 value for a compound is the concentration (μM) at which the activity along the four parameter logistic curve fit is halfway between minimum and maximum activity.
(§3) As set forth in Table 2 below, AC50 values are defined as follows: ≤0.1 μM (+++); >0.1 μM and ≤1.0 μM (++); >1.0 μM and ≤40 μM (+); >40 μM (0).

PKR(wt) = PKR(wt) (Homo sapiens, UniProt P30613); assay: as above; format: biochemical; settings: wild type; Luminescence Assay of Example 2
Experimental: as §1, §2, §3

PKR(R510Q) = PKR(R510Q) (Homo sapiens, UniProt P30613, R510Q); assay: as above; format: biochemical; settings: R510Q variant; Luminescence Assay of Example 2
Experimental: as §1, §2, §3

[2] = human, plasma, oral, HV (N = 6), single dose 700 mg, geometric mean (geometric CV)

Sequence of PKR(G332S) (P30613 whole entry G332S): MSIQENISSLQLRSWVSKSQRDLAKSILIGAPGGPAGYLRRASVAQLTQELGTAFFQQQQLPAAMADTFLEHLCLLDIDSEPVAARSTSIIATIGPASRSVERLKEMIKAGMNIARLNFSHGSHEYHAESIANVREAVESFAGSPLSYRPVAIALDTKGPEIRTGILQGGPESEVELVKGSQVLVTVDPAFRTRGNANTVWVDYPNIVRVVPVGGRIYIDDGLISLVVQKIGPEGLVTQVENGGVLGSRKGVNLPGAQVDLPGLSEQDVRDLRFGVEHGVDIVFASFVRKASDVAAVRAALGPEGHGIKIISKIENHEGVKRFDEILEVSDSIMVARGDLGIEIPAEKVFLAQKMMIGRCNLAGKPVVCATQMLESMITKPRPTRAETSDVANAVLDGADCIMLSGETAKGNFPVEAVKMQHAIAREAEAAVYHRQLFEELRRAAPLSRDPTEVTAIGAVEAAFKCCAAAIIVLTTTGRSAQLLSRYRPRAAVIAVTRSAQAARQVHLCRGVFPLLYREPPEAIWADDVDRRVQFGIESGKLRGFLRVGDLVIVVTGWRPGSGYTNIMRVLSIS
Sequence of PKR(wt) (P30613 whole entry): as the sequence (P30613 whole entry G332S) above, with S332G counted along it
Sequence of PKR(R510Q) (P30613 whole entry R510Q): as the sequence (P30613 whole entry G332S) above, with S332G, R510Q counted along it

Question: Which “exposure under fed/fasted conditions” value ([1]; food effect cohort, 400 mg) does the source give for `O=C([C@H](CO)c1ccccc1)N1CC2=C(C1)CN(S(=O)(=O)c1cnc3c(c1)OCCO3)C2` (single isomer, unassigned) [Compound 1] here?
Answer: Its value is “similar”.

Question: And the “PK linearity and time dependence” value ([1]; healthy subject studies)?
Answer: Its value is “linear and time-independent PK”.

Question: What about the “observed clearance on day 1 and day 14” value ([1]; healthy subjects, 14 days of dosing) of the same molecule?
Answer: Its value is “unchanged”.

Question: And the half-life ([1]; human, plasma, oral, 700 mg, HV (N = 6), single dose 700 mg, geometric mean (geometric CV), read-out: t1/2 (converted))?
Answer: The half-life was 13.3 h.

Question: What about the half-life ([1]; human, plasma, oral, biphasic PK profile, read-out: terminal half-life) of the same molecule?
Answer: Its half-life is 12 to 14 h.

Question: What about the half-life ([1]; human, plasma, oral, healthy volunteers, single doses up to 700 mg, read-out: T1/2) of the same molecule?
Answer: The half-life was 11 to 15 h.

Question: What about the AUC(0-t) ([1]; human, plasma, oral, HS and SCD subjects similar, read-out: AUC0-24) of the same molecule?
Answer: Its AUC(0-t) is about 7000 ng·h/mL.

Question: And the half-life ([1]; human, plasma, oral, HS and SCD subjects similar, read-out: T½)?
Answer: Its half-life is 10 to 13 h.

Question: What about the AUC(0-inf) [1, 2] of the same molecule?
Answer: Its AUC(0-inf) is 7000 ng·h/mL.

Question: What about the Cmax [1, 2] of the same molecule?
Answer: Its Cmax is 2200 ng/mL.

Question: And the Tmax ([1]; human, plasma, oral, HV (N = 6), single dose 700 mg, median [min, max])?
Answer: Its Tmax is 0.5 h.

Question: And the Papp A→B (Permeability Papp (A-B))?
Answer: The Papp A→B was 5.46 ×10⁻⁶ cm/s.

Question: What about the AC50 (PKR(G332S)) of the same molecule?
Answer: The AC50 was under 1000 nM.

Question: And the AC50 (PKR(wt))?
Answer: Its AC50 is under 1000 nM.

Question: And the AC50 (PKR(R510Q))?
Answer: The AC50 was under 1000 nM.
